Measurements reported in US9206236B2, “Peptides for treating cancer” (Gene Signal International SA, priority 2010, dated 2015).

Tests used:
[1] = test system: human microvascular endothelial cells (HMEC); assay: In vitro angiogenesis assay (Matrigel tube formation); format: cell-based; conditions: 500 μg/ml final concentration of peptide, images at 18 h
Method: Angiogenesis of human microvascular endothelial cells (HMEC) was induced in vitro using a Matrigel assay described by Al-Mahmood et al (2009, JPET, 2009; 58:933). This method is based on the differentiation of endothelial cells to form capillary structures on a Matrigel Matrix. Matrigel is prepared the Engelbreth-Holm-Swarm (EHS) mouse tumor, which represents a complex mixture of basement membrane proteins including type IV collagen, entactin, proteo-heparan sulfate and other growth factors.
Briefly, 250 μl of Matrigel were transferred to each well of a 24-well culture plate and incubated at 37° C. for 30 min to allow for the matrix solution to solidify. HMEC grown in complete growth medium EGM-2MV were harvested by trypsin, suspended in the same growth medium and 500 μl containing 70 000 cells were added on top of the solidified Matrigel in each well and in the presence or absence of peptide. Cells were maintained in a humidified atmosphere air containing 5% CO2 at 37° C. for 18-24 hrs. Endothelial tube formation was observed and photographed under an inverted light microscope.
The designed tyrosine phosphorylated and non phosphorylated peptides were tested for their influence onto the in vitro angiogenesis. The results of the in vitro angiogenesis assay were presented in FIG. 1, using HMEC and 500 μg/ml final concentration of each peptide.

[2] = Body weight and toxicity of mice bearing NCI-H460 tumors (Example 2); format: in vivo
Method: (§1) All experiments were reviewed by the Genopole's institutional animal care and use committee and were performed in accordance with institutional guidelines for animal care. Female BALB/c nu/nu mice (n=30) were used at 5-6 weeks of age. The animals were housed in laminar air-flow cabinets under pathogen-free conditions with a 12 h light/12 h dark schedule, and fed autoclaved standard chow and water ad libitum. […] Tumor cells (10^7 cells in 200 μl of HBSS) were injected subcutaneously into the right flanks of mice. […] At tumor volume about 150 mm3, animals were randomized, and separated into five groups of five animals. Control mice (group 1) were intraperitoneally injected with vehicle (10% DMSO in buffer saline) every day. GS-0 was dissolved in vehicle and intraperitoneally injected (group 2) every day (12 injections). GS-1 was dissolved in vehicle and intraperitoneally injected (group 3) every day (12 injections). Tumor volume and body weight were measured every other day over the treatment period (12 days).

NCI-H460 tumors = assay: NCI-H460 tumor xenograft in nude mice, tumor volume (Example 3); format: in vivo
Method: H460 cell line has cytology compatible with human Non-Small Cell Lung Cancer (NSCL). Cells were grown in MEM medium containing 10% FCS at 37° C., 5% CO2 humidified atmosphere. The absence of mycoplasms was confirmed by using the PCR Mycoplasma Detection kit (Takara). All experiments were reviewed by the Genopole's institutional animal care and use committee and were performed in accordance with institutional guidelines for animal care. Female BALB/c nu/nu mice (n=30) were used at 5-6 weeks of age. The animals were housed in laminar air-flow cabinets under pathogen-free conditions with a 12 h light/12 h dark schedule, and fed autoclaved standard chow and water ad libitum. The NCI-H460 human NSCL cell line was obtained from American Type Culture Collection (ATCC) were grown in RPMI medium 1640 supplemented with 1 μM sodium pyruvate. Tumor cells (10^7 cells in 200 μl of HBSS) were injected subcutaneously into the right flanks of mice. After engraftment, tumor volume was measured by Vernier callipers, and calculated as described in Balsam A et al. (Balsari A et al. (2004) Eur J Cancer 40: 1275-1281). At tumor volume about 150 mm^3, animals were randomized, and separated into five groups of five animals. Control mice (group 1) were intraperitoneally injected with vehicle (10% DMSO in buffer saline) every day. GS-0 was dissolved in vehicle and intraperitoneally injected (group 2) every day (12 injections). GS-2 was dissolved in vehicle and intraperitoneally injected (group 3) every day (12 injections). Tumor volume and body weight were measured every other day over the treatment period (12 days). GS-2 as well as the control peptide GS-0 were solubilized in DMSO and the resulting solutions were diluted 10 times with phosphate buffer saline (PBS) to obtain a concentration of 1 mg of peptide/ml of 10% DMSO in PBS. At this concentration, all peptides were soluble in 10% DMSO.

[3] = Body weight and toxicity of mice bearing NCI-H460 tumors (Example 3); format: in vivo
Method: as §1, with “mm^3,” for “mm3,”, “GS-2” for “GS-1”

[4] = Solubility of peptides in 10% DMSO in PBS; format: physicochemical; conditions: 1 mg of peptide/ml of 10% DMSO in PBS
Method: GS-1 as well as the control peptide GS-0 were solubilized in DMSO and the resulting solutions were diluted 10 times with phosphate buffer saline (PBS) to obtain a concentration of 1 mg of peptide/ml of 10% DMSO in PBS. At this concentration, all peptides were soluble in 10% DMSO.
GS-2 as well as the control peptide GS-0 were solubilized in DMSO and the resulting solutions were diluted 10 times with phosphate buffer saline (PBS) to obtain a concentration of 1 mg of peptide/ml of 10% DMSO in PBS. At this concentration, all peptides were soluble in 10% DMSO.

[5] = 8 mg/kg intraperitoneally every day, 12 injections

Ac-NYICMG-NH2 [GS-0, NYICMG, reference compound]
in vitro angiogenesis-inhibitory activity [1]: have not and/or negligible in vitro angiogenesis-inhibitory activity
toxicity and body weight loss during treatment [2, 5]: No toxicity and no body weight loss
Mean body weight D1 ([2]; Table 1, 8 mg/kg i.p. daily, day 1, in g): 20.91
Mean body weight D3 ([2]; Table 1, 8 mg/kg i.p. daily, day 3, in g): 21.37
Mean body weight D5 ([2]; Table 1, 8 mg/kg i.p. daily, day 5, in g): 21.65
Mean body weight D7 ([2]; Table 1, 8 mg/kg i.p. daily, day 7, in g): 21.81
Mean body weight D9 ([2]; Table 1, 8 mg/kg i.p. daily, day 9, in g): 22.52
Mean body weight D11 ([2]; Table 1, 8 mg/kg i.p. daily, day 11, in g): 22.76
Mean body weight D13 ([2]; Table 1, 8 mg/kg i.p. daily, day 13, in g): 22.36
influence on the in vivo growth of the tumor NCI-H460 (in words) (NCI-H460 tumors; 8 mg/kg i.p. daily for 12 days): no significant influence
mean tumor volume at the end of treatment (NCI-H460 tumors; 8 mg/kg i.p. daily for 12 days, n=5): 1114.83 ± 534.50 mm^3
Mean tumor volume D1 (NCI-H460 tumors; Table 4, 8 mg/kg i.p. daily, day 1): 123 mm³
Mean tumor volume D3 (NCI-H460 tumors; Table 4, 8 mg/kg i.p. daily, day 3): 233 mm³
Mean tumor volume D5 (NCI-H460 tumors; Table 4, 8 mg/kg i.p. daily, day 5): 335 mm³
Mean tumor volume D7 (NCI-H460 tumors; Table 4, 8 mg/kg i.p. daily, day 7): 402 mm³
Mean tumor volume D9 (NCI-H460 tumors; Table 4, 8 mg/kg i.p. daily, day 9): 553 mm³
Mean tumor volume D11 (NCI-H460 tumors; Table 4, 8 mg/kg i.p. daily, day 11): 751 mm³
Mean tumor volume D13 (NCI-H460 tumors; Table 4, 8 mg/kg i.p. daily, day 13): 1110 mm³
toxicity and body weight loss during treatment [3, 5]: No toxicity and no body weight loss
Mean body weight D1 ([3]; Table 3, 8 mg/kg i.p. daily, day 1, in g): 20.91
Mean body weight D3 ([3]; Table 3, 8 mg/kg i.p. daily, day 3, in g): 21.37
Mean body weight D5 ([3]; Table 3, 8 mg/kg i.p. daily, day 5, in g): 21.65
Mean body weight D7 ([3]; Table 3, 8 mg/kg i.p. daily, day 7, in g): 21.81
Mean body weight D9 ([3]; Table 3, 8 mg/kg i.p. daily, day 9, in g): 22.52
Mean body weight D11 ([3]; Table 3, 8 mg/kg i.p. daily, day 11, in g): 22.76
Mean body weight D13 ([3]; Table 3, 8 mg/kg i.p. daily, day 13, in g): 22.36
solubility in 10% DMSO [4]: soluble
